Literature values, collected in US6959708B1, “Method for co-application of gases and drugs to potentiate their action in relieving headaches, angina and other ailments” (Capnia, Incorporated, priority 1999, dated 2005).
Where two headings read alike, the source gives them in different places.

Key:
[1] = system: central and peripheral airways; settings: asthmatic adults
[2] = system: serotonin-induced bronchial smooth muscle contraction
[3] = system: transpulmonary gradient and pulmonary vascular resistance; settings: inhaled low dose
[4] = system: pulmonary hypertension; settings: in vivo
[5] = co-application of a 10% CO2 concentration
[6] = drug alone, without CO2 co-application

| Compound | inhibition of serotonin-induced bronchial smooth muscle contraction [2, 5] [%] | inhibition of serotonin-induced bronchial smooth muscle contraction [2, 6] [%] | also measured |
| --- | --- | --- | --- |
| O=C=O [CO2, carbon dioxide] |  |  | effect on airways [1]: relax both central and peripheral airways |
| CN1[C@@H]2CC[C@H]1C[C@@H](OC(=O)C(CO)c1ccccc1)C2 (some centres unmarked) [atropine] | 62 | 46 |  |
| C[N+](C)(C)CCCCCC[N+](C)(C)C [hexamethonium] | 67 | 37 |  |
| nitric oxide [NO] |  |  | pulmonary vasoselectivity [3]: highly pulmonary vasoselective; reduction of transpulmonary gradient and pulmonary vascular resistance compared with sodium nitroprusside and prostacyclin ([3]; in vivo and clinical tests): as effective as sodium nitroprusside and prostacyclin; effect on pulmonary hypertension [4]: reverse pulmonary hypertension |
